In ChEMBL document CHEMBL1154288, “The discovery and unique pharmacological profile of RO4938581 and RO4882224 as potent and selective GABAA alpha5 inverse agonists for the treatment of cognitive dysfunction” (Bioorg Med Chem Lett, 2009):
Converted amounts (≈) assume the structure as drawn.

Experiments:
[1] = Selectivity ratio of Ki for cloned human GABA alpha-1-beta-3-gamma-2 receptor expressed in insect SF9 cells to Ki for cloned human GABA alpha-5-beta-3-gamma-2 receptor expressed in insect SF9 cells
[2] = target: T1, GABA-A receptor; alpha-5/beta-3/gamma-2 (Homo sapiens, UniProt P18507+P28472+P31644); assay: Displacement of [3H]Flumazenil from human GABA alpha-5-beta-3-gamma-2 receptor expressed in insect SF9 cells
T1 sequence (P18507 whole entry): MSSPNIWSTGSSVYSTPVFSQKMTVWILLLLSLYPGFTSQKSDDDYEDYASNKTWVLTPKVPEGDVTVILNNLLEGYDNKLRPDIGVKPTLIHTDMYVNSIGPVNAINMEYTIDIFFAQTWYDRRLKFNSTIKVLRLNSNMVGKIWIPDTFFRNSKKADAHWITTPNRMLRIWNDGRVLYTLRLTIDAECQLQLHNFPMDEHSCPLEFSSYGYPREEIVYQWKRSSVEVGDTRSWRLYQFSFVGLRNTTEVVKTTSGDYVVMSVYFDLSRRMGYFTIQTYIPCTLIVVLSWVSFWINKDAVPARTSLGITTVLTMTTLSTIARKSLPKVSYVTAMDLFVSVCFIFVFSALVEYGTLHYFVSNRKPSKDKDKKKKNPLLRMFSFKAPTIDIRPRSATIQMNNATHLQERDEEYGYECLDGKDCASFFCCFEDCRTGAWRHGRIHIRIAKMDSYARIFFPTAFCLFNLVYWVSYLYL
T1 sequence (P28472 whole entry): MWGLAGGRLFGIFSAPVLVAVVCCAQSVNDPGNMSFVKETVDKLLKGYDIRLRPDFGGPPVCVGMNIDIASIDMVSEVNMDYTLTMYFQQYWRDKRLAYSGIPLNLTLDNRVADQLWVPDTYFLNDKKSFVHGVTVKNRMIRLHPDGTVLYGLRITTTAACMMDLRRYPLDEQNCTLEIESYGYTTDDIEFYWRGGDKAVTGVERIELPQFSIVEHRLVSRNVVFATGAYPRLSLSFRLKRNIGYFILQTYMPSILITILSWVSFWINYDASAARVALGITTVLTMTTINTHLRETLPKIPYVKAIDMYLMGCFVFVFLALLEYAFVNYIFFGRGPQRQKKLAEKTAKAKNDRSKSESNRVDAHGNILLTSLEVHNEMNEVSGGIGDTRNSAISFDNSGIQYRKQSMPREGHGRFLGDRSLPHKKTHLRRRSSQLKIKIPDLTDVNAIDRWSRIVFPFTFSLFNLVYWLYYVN
T1 sequence (P31644 whole entry): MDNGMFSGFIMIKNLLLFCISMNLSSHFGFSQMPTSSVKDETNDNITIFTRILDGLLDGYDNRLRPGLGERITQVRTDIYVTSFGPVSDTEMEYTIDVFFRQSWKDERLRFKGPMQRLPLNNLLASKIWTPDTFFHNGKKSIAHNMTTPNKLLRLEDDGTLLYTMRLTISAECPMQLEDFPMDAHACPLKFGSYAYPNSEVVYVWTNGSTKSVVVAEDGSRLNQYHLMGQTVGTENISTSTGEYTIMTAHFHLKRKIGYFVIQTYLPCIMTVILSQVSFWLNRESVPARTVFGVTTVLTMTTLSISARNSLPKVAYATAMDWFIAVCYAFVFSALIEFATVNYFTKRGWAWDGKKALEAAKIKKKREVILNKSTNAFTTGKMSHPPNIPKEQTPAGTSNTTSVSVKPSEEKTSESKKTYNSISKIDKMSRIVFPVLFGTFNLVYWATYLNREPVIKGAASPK

[3] = Selectivity ratio of Ki for cloned human GABA alpha-2-beta-3-gamma-2 receptor expressed in insect SF9 cells to Ki for cloned human GABA alpha-5-beta-3-gamma-2 receptor expressed in insect SF9 cells
[4] = Selectivity ratio of Ki for cloned human GABA alpha-3-beta-3-gamma-2 receptor expressed in insect SF9 cells to Ki for cloned human GABA alpha-5-beta-3-gamma-2 receptor expressed in insect SF9 cells
[5] = target: GABA A receptor alpha-5/beta-3/gamma-2 (Rattus norvegicus) (UniProt P18508+P19969+P63079); assay: Inverse agonist activity at rat GABA alpha-5-beta-3-gamma-2 receptor expressed in HEK293 cells by electrophysiology assay relative to GABA; type: functional, cell-based
[6] = Oral bioavailability in rat; type: ADME, organism-based; conditions: in vivo
[7] = target: T2, GABA-A receptor; alpha-3/beta-3/gamma-2 (Homo sapiens, UniProt P18507+P28472+P34903); assay: Displacement of [3H]Flumazenil from cloned human GABA alpha-3-beta-3-gamma-2 receptor expressed in HEK293 cells; type: cell-based
T2 sequence (P18507 whole entry): T1 sequence (P18507 whole entry)
T2 sequence (P28472 whole entry): T1 sequence (P28472 whole entry)
T2 sequence (P34903 whole entry): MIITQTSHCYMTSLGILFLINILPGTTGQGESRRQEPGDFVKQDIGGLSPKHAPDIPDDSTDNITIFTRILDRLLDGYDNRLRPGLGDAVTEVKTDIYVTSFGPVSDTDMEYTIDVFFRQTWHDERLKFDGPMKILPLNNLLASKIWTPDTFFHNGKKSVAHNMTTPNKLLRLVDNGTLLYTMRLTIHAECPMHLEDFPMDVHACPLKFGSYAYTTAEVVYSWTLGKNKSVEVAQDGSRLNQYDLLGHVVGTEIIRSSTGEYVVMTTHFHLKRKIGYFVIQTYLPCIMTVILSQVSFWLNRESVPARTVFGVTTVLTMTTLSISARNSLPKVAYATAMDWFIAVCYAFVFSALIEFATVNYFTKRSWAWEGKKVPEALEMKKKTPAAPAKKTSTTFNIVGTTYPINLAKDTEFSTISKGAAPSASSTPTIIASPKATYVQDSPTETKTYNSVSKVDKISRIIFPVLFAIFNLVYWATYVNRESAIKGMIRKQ

[8] = Half life in rat; type: ADME, organism-based; conditions: in vivo
[9] = target: T3, GABA-A receptor; alpha-2/beta-3/gamma-2 (Homo sapiens, UniProt P18507+P28472+P47869); assay: Displacement of [3H]Flumazenil from cloned human GABA alpha-2-beta-3-gamma-2 receptor expressed in HEK293 cells; type: cell-based
T3 sequence (P18507 whole entry): T1 sequence (P18507 whole entry)
T3 sequence (P28472 whole entry): T1 sequence (P28472 whole entry)
T3 sequence (P47869 whole entry): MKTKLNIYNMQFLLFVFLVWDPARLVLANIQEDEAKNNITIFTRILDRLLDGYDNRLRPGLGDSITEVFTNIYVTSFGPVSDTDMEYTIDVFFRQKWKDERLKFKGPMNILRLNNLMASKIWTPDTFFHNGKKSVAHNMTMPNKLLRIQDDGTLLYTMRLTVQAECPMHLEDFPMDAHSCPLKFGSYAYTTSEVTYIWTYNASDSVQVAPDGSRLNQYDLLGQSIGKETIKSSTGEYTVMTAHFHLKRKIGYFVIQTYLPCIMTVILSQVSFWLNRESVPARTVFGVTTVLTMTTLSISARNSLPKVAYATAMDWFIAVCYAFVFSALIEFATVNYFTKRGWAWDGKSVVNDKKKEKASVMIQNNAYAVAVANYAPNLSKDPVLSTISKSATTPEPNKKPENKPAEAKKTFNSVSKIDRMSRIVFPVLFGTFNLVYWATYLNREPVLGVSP

[10] = Clearance in rat; type: ADME, organism-based; conditions: in vivo
[11] = target: T4, GABA-A receptor; alpha-1/beta-3/gamma-2 (Homo sapiens, UniProt P14867+P18507+P28472); assay: Displacement of [3H]Flumazenil from cloned human GABA alpha-1-beta-3-gamma-2 receptor expressed in HEK293 cells; type: cell-based
T4 sequence (P14867 whole entry): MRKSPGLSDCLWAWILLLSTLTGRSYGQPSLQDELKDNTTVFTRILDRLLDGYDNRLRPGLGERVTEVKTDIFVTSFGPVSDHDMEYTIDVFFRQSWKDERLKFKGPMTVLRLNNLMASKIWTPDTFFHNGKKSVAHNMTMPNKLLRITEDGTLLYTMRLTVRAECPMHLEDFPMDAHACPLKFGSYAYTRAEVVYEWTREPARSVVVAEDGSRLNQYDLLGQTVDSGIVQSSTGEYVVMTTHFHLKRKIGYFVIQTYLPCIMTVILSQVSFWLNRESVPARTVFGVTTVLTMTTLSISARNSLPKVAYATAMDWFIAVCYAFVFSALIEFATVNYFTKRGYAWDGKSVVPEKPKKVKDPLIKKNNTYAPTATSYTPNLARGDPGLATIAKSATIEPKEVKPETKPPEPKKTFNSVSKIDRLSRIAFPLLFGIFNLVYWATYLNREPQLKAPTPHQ
T4 sequence (P18507 whole entry): T1 sequence (P18507 whole entry)
T4 sequence (P28472 whole entry): T1 sequence (P28472 whole entry)

[12] = Lipophilicity, log D at pH 7.4; type: physicochemical; conditions: buffer
[13] = target: GABA-A receptor; alpha-1/beta-2/gamma-2 (Rattus norvegicus) (UniProt P18508+P62813+P63138); assay: Inverse agonist activity at rat GABA alpha-1-beta-3-gamma-2 receptor expressed in HEK293 cells by electrophysiology assay relative to GABA; type: functional, cell-based
[14] = target: Gamma-aminobutyric acid receptor subunit alpha-3 (Rattus norvegicus) (UniProt P20236); assay: Inverse agonist activity at rat GABA alpha-3-beta-3-gamma-2 receptor expressed in HEK293 cells by electrophysiology assay relative to GABA; type: functional, cell-based
[15] = target: GABA A receptor alpha-2/beta-2/gamma-2 (Rattus norvegicus) (UniProt P18508+P23576+P63138); assay: Inverse agonist activity at rat GABA alpha-2-beta-3-gamma-2 receptor expressed in HEK293 cells by electrophysiology assay relative to GABA; type: functional, cell-based
[16] = target: T1, GABA-A receptor; alpha-5/beta-3/gamma-2; assay: Displacement of [3H]Flumazenil from cloned human GABA alpha-5-beta-3-gamma-2 receptor expressed in HEK293 cells; type: cell-based
[17] = Solubility by lypophlisation solubility assay; type: physicochemical
[18] = Permeability by PAMPA; type: ADME; conditions: read-out: permeability
[19] = Volume of distribution at steady state in rat; type: ADME, organism-based; conditions: in vivo, read-out: Vdss

Chain of Gamma-aminobutyric acid receptor subunit alpha-3 (Rattus norvegicus) (P20236 whole entry): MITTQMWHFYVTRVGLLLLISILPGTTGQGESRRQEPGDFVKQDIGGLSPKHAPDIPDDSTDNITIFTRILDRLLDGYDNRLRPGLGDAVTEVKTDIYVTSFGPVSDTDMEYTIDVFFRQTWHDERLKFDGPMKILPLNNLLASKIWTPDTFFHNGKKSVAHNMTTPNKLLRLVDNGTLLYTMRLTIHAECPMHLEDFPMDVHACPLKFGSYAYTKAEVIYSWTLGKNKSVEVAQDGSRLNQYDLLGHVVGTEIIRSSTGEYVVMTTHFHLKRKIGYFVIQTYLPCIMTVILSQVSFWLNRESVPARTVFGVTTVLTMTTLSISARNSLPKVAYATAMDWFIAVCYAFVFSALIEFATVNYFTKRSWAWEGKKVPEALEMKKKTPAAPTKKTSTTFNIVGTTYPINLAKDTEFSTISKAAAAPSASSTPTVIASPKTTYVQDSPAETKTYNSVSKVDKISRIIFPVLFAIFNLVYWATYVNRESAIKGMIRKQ

Structure (SMILES) | Ratio Ki [1] | Ki [2] | Ratio Ki [3] | Ratio Ki [4] | Efficacy [5] | also measured
CCC(=O)c1ncn2c1Cn1ncnc1-c1cc(Cl)ccc1-2 | 12 | 2.6 nM | 11 | 8 | -38% | –
N#Cc1ncn2c1Cn1ncnc1-c1cc(Cl)ccc1-2 | 7 | 6.4 nM | 11 | 9 | -31% | –
FC(F)c1ncn2c1Cn1ncnc1-c1cc(Cl)ccc1-2 | – | – | – | – | -18% | bioavailability [6]: 87%; Ki [7]: 48 nM; half-life [8]: 54 min; Ki [9]: 81 nM; clearance [10]: 3.8 mL/min/kg; Ki [11]: 53 nM; logD [12]: 2; Efficacy [13]: -20%; Efficacy [14]: 21%; Efficacy [15]: 2%; Ki [16]: 5.6 nM; solubility [17]: 58 µg/mL (≈ 189 µM); Papp [18]: 6.3 ×10⁻⁶ cm/s; Vd [19]: 0.3 L/kg
Fc1ccc2c(c1)-c1ncnn1Cc1cncn1-2 | 12 | 10 nM | 4 | 3 | -45% | –
CCOC(=O)c1ncn2c1Cn1ncnc1-c1cc(F)ccc1-2 | 1 | 0.2 nM | – | 1 | -16% | Ratio [3]: 1
Fc1ccc2c(c1)-c1ncnn1Cc1c(Cl)ncn1-2 | 3 | 0.3 nM | 4 | 3 | -33% | –
